The values that follow come from US5604234A, “Substituted thiol macrolactam immunomodulators” (Abbott Laboratories, priority 1995, dated 1997).

The IC50 is the midpoint of a concentration-inhibition curve.

Assay [1] concerns human mixed lymphocyte reaction (MLR). Put plainly: human mixed lymphocyte reaction (MLR) assay, immunosuppressant activity. The note with it: Table 2. In kind it is cell-based. As to the method: The immunosuppressant activity of the compounds of the present invention was determined using the human mixed lymphocyte reaction (MLR) assay described by Kino, T. et al. in Transplantation Proceedings, XIX(5):36-39,Suppl. 6 (1987).

For assay [2] the test system is unchanged. The assay can be described thus: human mixed lymphocyte reaction (MLR), serum free variation. In kind it is cell-based. Conditions: Homo sapiens, Lymphocyte, serum-free medium AIM V, Table 3. Put shortly: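 Serum-free variant of the human MLR: cultured in AIM V medium in place of RPMI 1640 with 10% heat-inactivated FBS. Responder and stimulator PBMCs, pooled from four donors, at final 5×10^5/mL and 2×10^6/mL respectively.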

As for `CC[C@@H]1/C=C(\C)C[C@H](C)C[C@H](OC)[C@H]2O[C@@](O)(C(=O)C(=O)N3CCCC[C@H]3C(=O)O[C@H](/C(C)=C/[C@@H]3CC[C@H]([S+](C)[O-])[C@H](OC)C3)[C@H](C)[C@@H](O)CC1=O)[C@H](C)C[C@@H]2OC` (single isomer, unassigned) [Example 127], the IC50 in assay [1] (Homo sapiens, Lymphocyte) came to 12.5 nM.
Same read-out and setting: to `CC[C@@H]1/C=C(\C)C[C@H](C)C[C@H](OC)[C@H]2O[C@@](O)(C(=O)C(=O)N3CCCC[C@H]3C(=O)O[C@H](/C(C)=C/[C@@H]3CC[C@H]([S+]([O-])c4ccccc4)[C@H](OC)C3)[C@H](C)[C@@H](O)CC1=O)[C@H](C)C[C@@H]2OC` (single isomer, unassigned) [Example 133A] belongs 6.2 nM.
As for `CC[C@@H]1/C=C(\C)C[C@H](C)C[C@H](OC)[C@H]2O[C@@](O)(C(=O)C(=O)N3CCCC[C@H]3C(=O)O[C@H](/C(C)=C/[C@@H]3CC[C@H]([S+]([O-])c4ccccc4)[C@H](OC)C3)[C@H](C)[C@@H](O)CC1=O)[C@H](C)C[C@@H]2OC` (single isomer, unassigned) [Example 133B], half-maximal inhibition in assay [1] (IC50) required 6.5 nM.
`CCC1C=C(C)CC(C)CC(OC)C2OC(O)(C(=O)C(=O)N3CCCCC3C(=O)OC(C(C)=CC3CCC(SCCC(=O)OCc4ccccc4)C(OC)C3)C(C)C(O)CC1=O)C(C)CC2OC` (stereo not drawn) [Example 18] yielded an IC50 in assay [1] (Homo sapiens, Lymphocyte) of 18.5 nM.
Still for that read-out and setting: in the case of `CC[C@@H]1/C=C(\C)C[C@H](C)C[C@H](OC)[C@H]2O[C@@](O)(C(=O)C(=O)N3CCCC[C@H]3C(=O)O[C@H](/C(C)=C/[C@@H]3CC[C@H](SC)[C@H](OC)C3)[C@H](C)[C@@H](O)CC1=O)[C@H](C)C[C@@H]2OC` [Example 90] it was 0.75 nM.
In assay [2], `CC[C@@H]1/C=C(\C)C[C@H](C)C[C@H](OC)[C@H]2O[C@@](O)(C(=O)C(=O)N3CCCC[C@H]3C(=O)O[C@H](/C(C)=C/[C@@H]3CC[C@H](SC(=O)CNC(N)=O)[C@H](OC)C3)[C@H](C)[C@@H](O)CC1=O)[C@H](C)C[C@@H]2OC` [Example 121] yielded an IC50 of 2.6 nM.
On the same count and under the same terms, in the case of `CC[C@@H]1/C=C(\C)C[C@H](C)C[C@H](OC)[C@H]2O[C@@](O)(C(=O)C(=O)N3CCCC[C@H]3C(=O)O[C@H](/C(C)=C/[C@@H]3CC[C@H](SC(=O)[C@@H](NC(C)=O)[C@@H](C)O)[C@H](OC)C3)[C@H](C)[C@@H](O)CC1=O)[C@H](C)C[C@@H]2OC` [Example 122] it was 1.5 nM.
`CC[C@@H]1/C=C(\C)C[C@H](C)C[C@H](OC)[C@H]2O[C@@](O)(C(=O)C(=O)N3CCCC[C@H]3C(=O)O[C@H](/C(C)=C/[C@@H]3CC[C@H](SC(=O)[C@H](C)O)[C@H](OC)C3)[C@H](C)[C@@H](O)CC1=O)[C@H](C)C[C@@H]2OC` [Example 123]: inhibition in assay [2] was half-maximal at 2.8 nM (IC50).
The same measure, in the same setting: to `CC[C@@H]1/C=C(\C)C[C@H](C)C[C@H](OC)[C@H]2O[C@@](O)(C(=O)C(=O)N3CCCC[C@H]3C(=O)O[C@H](/C(C)=C/[C@@H]3CC[C@H](SC(=O)[C@@H](C)O)[C@H](OC)C3)[C@H](C)[C@@H](O)CC1=O)[C@H](C)C[C@@H]2OC` [Example 124] belongs 2 nM.
In assay [2], `CC[C@@H]1/C=C(\C)C[C@H](C)C[C@H](OC)[C@H]2O[C@@](O)(C(=O)C(=O)N3CCCC[C@H]3C(=O)O[C@H](/C(C)=C/[C@@H]3CC[C@H](SC(=O)CO)[C@H](OC)C3)[C@H](C)[C@@H](O)CC1=O)[C@H](C)C[C@@H]2OC` [Example 125] had an IC50 of 3.5 nM.
Take `CC[C@@H]1/C=C(\C)C[C@H](C)C[C@H](OC)[C@H]2O[C@@](O)(C(=O)C(=O)N3CCCC[C@H]3C(=O)O[C@H](/C(C)=C/[C@@H]3CC[C@H]([S+](C)[O-])[C@H](OC)C3)[C@H](C)[C@@H](O)CC1=O)[C@H](C)C[C@@H]2OC` (stereo partly drawn) [Example 128]: the IC50 in assay [1] (Homo sapiens, Lymphocyte) was 15.5 nM.
The same measure, in the same setting: to `CC[C@@H]1/C=C(\C)C[C@H](C)C[C@H](OC)[C@H]2O[C@@](O)(C(=O)C(=O)N3CCCC[C@H]3C(=O)O[C@H](/C(C)=C/[C@@H]3CC[C@H](S(C)(=O)=O)[C@H](OC)C3)[C@H](C)[C@@H](O)CC1=O)[C@H](C)C[C@@H]2OC` [Example 129] belongs 1.15 nM.
On the same count and under the same terms, to `CC[C@@H]1/C=C(\C)C[C@H](C)C[C@H](OC)[C@H]2O[C@@](O)(C(=O)C(=O)N3CCCC[C@H]3C(=O)O[C@H](/C(C)=C/[C@@H]3CC[C@H](SCSC)[C@H](OC)C3)[C@H](C)[C@@H](O)CC1=O)[C@H](C)C[C@@H]2OC` [Example 130] belongs 0.58 nM; to `CC[C@@H]1/C=C(\C)C[C@H](C)C[C@H](OC)[C@H]2O[C@@](O)(C(=O)C(=O)N3CCCC[C@H]3C(=O)O[C@H](/C(C)=C/[C@@H]3CC[C@H](SCOC)[C@H](OC)C3)[C@H](C)[C@@H](O)CC1=O)[C@H](C)C[C@@H]2OC` [Example 131], 5.2 nM.
Still for that read-out and setting: to `CC[C@@H]1/C=C(\C)C[C@H](C)C[C@H](OC)[C@H]2O[C@@](O)(C(=O)C(=O)N3CCCC[C@H]3C(=O)O[C@H](/C(C)=C/[C@@H]3CC[C@H](Sc4ccccc4)[C@H](OC)C3)[C@H](C)[C@@H](O)CC1=O)[C@H](C)C[C@@H]2OC` [Example 132] belongs 3.4 nM.
